In PMC5923397, “A New Breviane Spiroditerpenoid from the Marine-Derived Fungus Penicillium sp. TJ403-1” (Marine Drugs, 2018):

Tests used:
[1] = system: HEP3B; assay: Cytotoxicity assay (MTT), HEP3B; format: cell-based, human; details: HEP3B (hepatic cancer), 48 h exposure
Experimental: (§1) Five human tumor cell lines (HL-60, MM231, A-549, HEP3B, and SW480), together with one non-cancerous cell line, the human normal colonic epithelial cell NCM460, were used in the cytotoxic activity assay. All cells were cultured in DMEM or RPMI-1640 medium (HyClone, Logan, UT, USA), supplemented with 10% fetal bovine serum (HyClone) at 37 °C in a humidified atmosphere with 5% CO2. The cell survival assay was performed using the MTT method. Briefly, 100 μL suspended cells at an initial density of 1 × 10^5 cells/mL were seeded into each well of the 96-well culture plates and allowed to adhere for 12 h before addition of the test compounds. […] After incubation, culture supernatants were removed and exchanged with medium containing 0.5 mg/mL MTT. Then, after 4 h incubation in darkness at 37 °C, the medium was removed, and cells were added with 100 μL dimethyl sulfoxide. The absorbance at 570 nm was measured and data are expressed as averages of three replicates. The value of inhibition was calculated by using the following formula: % inhibition = (1 − ODtreated/ODcontrol) × 100. The IC50 values were calculated by using a standard dose-response curve fitting with Prism (version 5.0, GraphPad Software, La Jolla, CA, USA).

[2] = system: MM231; assay: Cytotoxicity assay (MTT), MM231; format: cell-based, human; details: MM231 (breast cancer), 48 h exposure
Experimental: as §1

[3] = system: NCM460; assay: Cytotoxicity assay (MTT), normal colonic epithelial cell NCM460; format: cell-based, human; details: for IC50: MTT, 48 h exposure
Experimental: as §1

[4] = system: A-549; assay: Cytotoxicity assay (MTT), A-549; format: cell-based, human; details: 48 h exposure
Experimental: as §1

[5] = system: SW480; assay: Cytotoxicity assay (MTT), SW480; format: cell-based, human; details: SW480 (colon cancer), 48 h exposure
Experimental: as §1

[6] = system: HL-60; assay: Cytotoxicity assay (MTT), HL-60; format: cell-based; details: Homo sapiens, HL-60 (acute leukemia), 48 h exposure
Experimental: as §1

[7] = Homo sapiens, A549, A-549 (lung cancer)

Row | SMILES | IC50 [1] [µM] | IC50 [2] [µM] | IC50 [3] [µM] | IC50 ([4]; A-549 (lung cancer)) [µM] | IC50 [5] [µM] | IC50 ([1]; Homo sapiens) [µM] | IC50 ([2]; Homo sapiens) [µM] | IC50 ([3]; Homo sapiens) [µM] | IC50 [4, 7] [µM] | IC50 [6] [µM] | IC50 ([5]; Homo sapiens) [µM] | cytotoxic activity against the NCM460 cell ([3]; result in words)
1 | N.N.[Cl][Pt][Cl] [Cis-platin, cis-platin, reference compound] | 2.96 ± 0.22 | 3.84 ± 0.25 | 0.85 ± 0.07 | 2.79 ± 0.36 | 1.42 ± 0.11 |  |  |  |  |  |  | 
2 | CC(=O)O[C@H]1C(=O)[C@@]2(C)[C@H]([C@H](OC(=O)c3ccccc3)[C@]3(O)C[C@H](OC(=O)[C@H](O)[C@@H](NC(=O)c4ccccc4)c4ccccc4)C(C)=C1C3(C)C)[C@]1(OC(C)=O)CO[C@@H]1C[C@@H]2O [Paclitaxel, paclitaxel, reference compound] |  |  |  |  |  | < 0.008 | < 0.008 | < 0.008 | < 0.008 | < 0.008 | < 0.008 | 
3 | CC1=CC(O)C2C3(C)C(O)CC(=O)C(C)(C)C3CCC2(C)C12Cc1c(c(C)c(C)oc1=O)O2 (stereo not drawn) [compound 1, brevione O] |  |  |  |  |  | > 40 | > 40 | > 40 | > 40 | > 40 | > 40 | 
4 | CC1=C[C@H](O)[C@@H]2[C@@]3(C)C=CC(=O)C(C)(C)[C@@H]3CC[C@@]2(C)[C@]12Cc1c(c(C)c(C)oc1=O)O2 [compound 2, brevione I] |  |  |  |  |  | 5.5 ± 0.67 | > 40 | > 40 | 8.6 ± 1.36 | 4.92 ± 0.65 | 21.2 ± 2.72 | no cytotoxic activity
5 | CC1=C[C@H](O)[C@@H]2[C@@]3(C)CCC(=O)C(C)(C)[C@@H]3CC[C@@]2(C)[C@]12Cc1c(c(C)c(C)oc1=O)O2 [compound 3, brevione J] |  |  |  |  |  | > 40 | > 40 | > 40 | > 40 | 25.6 ± 3.84 | > 40 | 
6 | CC1=CC(=O)C[C@@H]2O[C@@H]3C=C(C)[C@@]45Oc6c(C)c(C)oc(=O)c6[C@@H]4O[C@H](O)[C@]54CC[C@@H]1[C@@]2(C)[C@@H]34 [compound 4, brevione H] |  |  |  |  |  | > 40 | > 40 | > 40 | > 40 | > 40 | > 40 | 
7 | C=CC(C)(C)C12CC3C(=O)NC(C(C)C)C(=O)N3C1N(C(C)=O)c1ccccc12 (stereo not drawn) [compound 5, brevicompanine G] |  |  |  |  |  | > 40 | > 40 | > 40 | 18.4 ± 2.15 | 21.8 ± 3.48 | > 40 | 
